Reference: patent US20210308101A1, “METHODS OF TREATING FIBROMYALGIA” (Aptinyx Inc., priority 2019, published 2021)

Tests used:
[1] = tested on: subjects with fibromyalgia; experiment: PROMIS Physical Function short form; format: in vivo, human
From the text: As used herein, the “PROMIS Physical Function short form” is Patient Reported Outcomes Measurement Information System Physical Function Short Form. The PROMIS physical function short form version 1.0 12a measures the self-reported performance of physical activities including dexterity, walking or mobility and the ability to complete activities of daily living. All 12 questions are based on a 5-point numerical rating scale/Likert scale ranging from 1 to 5 with different categorical responses. Higher scores represent a better quality of life. The PROMIS physical function is made of the 2 following subdomains: • Walking Subdomain Score • If the question, “Can you walk 25 feet on a level surface (with or without support)?” is answered yes, then 6 questions will be assessed. Otherwise, the Walking Subdomain Score will not be calculated. 4 Questions with Scores Ranging from 1 (Unable to do) to 5 (Without any difficulty): • Are you able to walk on flat ground? • Are you able to walk up and down two steps? • Are you able to run at a fast pace for 2 miles? • Are you able to do yard work like raking leaves, weeding, or pushing a lawn mower? 2 Questions with Scores Ranging from 1 (Cannot do) to 5 (Not at all): • Does your health now limit you in doing strenuous activities such as backpacking, skiing, playing tennis, bicycling, or jogging? • Does your health now limit you in hiking a couple of miles on uneven surfaces, including hills? • Sum of those 6 Questions make up the Walking Subdomain Score Ranging from 6 to 30 • Other Physical Function Subdomain Score 5 Questions with Scores Ranging from 1 (Unable to do) to 5 (Without any difficulty): • Are you able to wash and dry your body? • Are you able to get in and out of bed? • Are you able to bend down and pick up clothing from the floor? • Are you able to push open a heavy door? • Are you able to reach and get down an object (such as a can of soup) from above your head? 1 Question with Scores Ranging from 1 (Cannot do) to 5 (Not at all): • Does your health now limit you in doing eight hours of physical labor? • Sum of those 6 Questions make up the Other Physical Function Subdomain Score Ranging from 6 to 30
If at least 3 questions have been answered within an individual subdomain, that subdomain score may be imputed if missing responses are present. […] A total score for PROMIS physical function was not calculated. The PROMIS physical function assessment was collected and analyzed at visits Screening, Day 1, Week 2, Week 4, Week 6, and Follow-up (Week 7). […] Additionally, the treatment group comparisons were analyzed using the paired t-test and nonparametric Wilcoxon signed-rank test. All PROMIS physical function data collected and the calculated subdomain scores at each visit were presented in a subject listing.

[2] = tested on: subjects with fibromyalgia; experiment: Brief Pain Inventory - Short Form (BPI-SF); format: in vivo, human; details: not statistically significant
From the text: As used herein, “Brief Pain Inventory” (BPI)—Short Form is a brief, simple patient-completed numeric rating scale that assesses the severity of pain (Severity scale), its impact on daily functioning (Interference scale), and other aspects of pain (e.g., location of pain, relief from medications). A short form version of the BPI, including the 4-item pain Severity scale (Worst Pain, Least Pain, Average Pain, and Pain Now) and the 7-item pain Interference scale (General Activity, Mood, Walking Ability, Normal Work, Relations with Other People, Sleep, Enjoyment of Life) were the main BPI-Short Form analyses. […] If at least 3 of the 4 Severity items have a reported score, then the Pain Severity Index was the calculated mean. Otherwise, the Pain Severity Index was set to missing. […] Otherwise, the Pain Interference Index was set to missing. […] The Pain Severity Index and the Pain Interference Index were referred to as composite scores.
There may be dates in which worst pain in the last 24 hours has scores that are less than the least pain in the last 24 hours and/or right now pain scores. Also, the least pain in the last 24 hours scores may be greater than the worst pain in the last 24 hours and/or right now pain scores. This may be due to the collection of the data that cannot be changed due to the subject's confusion of the three scores. The Pain Severity Index score equally distributes all these three scores and the average pain score. Therefore, the Pain Severity Index score is not impacted by any of these scores being mixed up. As a result, the scores were analyzed based on the values collected.
The 2 composite scores took on values ranging from 0 to 10 and were rounded off by one number after the decimal point. A total pain score for BPI-Short Form was not calculated. The BPI-Short Form assessment was collected and analyzed at visits Screening, Day 1, Week 2, Week 4, Week 6, and Follow-up (Week 7). The observed composite scores, changes from baseline, and changes from treatment periods were summarized using descriptive statistics. Additionally, the treatment group comparisons were analyzed using the paired t-test and nonparametric Wilcoxon signed-rank test. All BPI-Short Form data collected and the calculated composite scores at each visit were presented in a subject listing. […] Have you had pain other than these everyday kinds of pain today?” is a categorical response (yes/no). […] This question was included in the descriptive statistics, but was not analyzed using any paired t-test and nonparametric Wilcoxon signed-rank test comparisons. • BPI-Short Form question 2, “On the diagram, shade in the areas where you feel pain. […]

[3] = Week 2 (placebo) to Week 4 (NYX-2925 20 mg)
[4] = Week 2 (placebo) to Week 6 (NYX-2925 200 mg), not statistically significant
[5] = Week 2 (placebo) to Week 6 (NYX-2925 200 mg)

CC(C)C(=O)N1CCC[C@]12CN([C@H](C(N)=O)[C@@H](C)O)C2=O [NYX-2925, (2S, 3R)-3-hydroxy-2-((R)-5-isobutyryl-1-oxo-2,5-diazaspiro[3.4]octan-2-yl)butanamide]
PROMIS Physical Function Other Physical Function Subdomain score, mean change [1, 3]: −0.1
PROMIS Physical Function Walking Subdomain score, mean change [1, 3]: 0.2
PROMIS Physical Function Other Physical Function Subdomain score, mean change [1, 4]: 0.4
PROMIS Physical Function Walking Subdomain score, mean change [1, 4]: 0.5
BPI-SF Pain Interference Index score, mean change [2, 3]: −0.04
BPI-SF Pain Severity Index score, mean change [2, 3]: −0.22
BPI-SF Pain Interference Index score, mean change [2, 5]: −0.66
BPI-SF Pain Severity Index score, mean change [2, 5]: −0.27
